# Experimental data: patent US20150258050A1, “METHOD FOR REDUCING TRIGLYCERIDES” (DEAKIN UNIVERSITY, priority 2012, published 2015)
# Entries after “also recorded” stand apart in the source; their conditions may differ.
# Key:
# [1] = Chylomicron TAG polyunsaturated fatty acids (gas chromatography of FAME); format: in vivo, human; details: for EPA (20:5n-3) proportion in chylomicron TAGs: one to five hours postprandial, compared to the other breakfasts
# Procedure: (§1) This was a postprandial study where fasting blood was taken, followed by the consumption of a breakfast containing placebo (olive oil) or active oils (EPA or DPA) and then hourly post prandial blood samples were taken up to 5-hours.
# (§2) The study breakfast consisted of 180 grams of instant mashed potato (Continental Deb™, Unilever, Australasia) mixed with 70 ml boiled water and 20 grams of oil. In each of the three meals 18 grams of lipids consisted of olive oil (La Espanola Pure Olive Oil, Seville, Spain). The DPA breakfast included 2 g of DPA (Equateq Ltd, Breasclete, Callanish, Scotland), the EPA breakfast 2 g of EPA (Equateq Ltd, Breasclete, Callanish, Scotland) and the control (olive oil) meal an additional 2 g of olive oil. EPA and DPA were included in the olive oil as free fatty acids. The subjects could use salt, pepper or chicken flavoured salt with the meal and were provided with water throughout the study period ad libitum. Subjects consumed the study meal within 15 minutes.
# (§3) A chylomicron-rich fraction (Svedberg flotation unit (Sf) >400), later abbreviated to “chylomicrons”, was isolated from plasma by ultracentrifugation using a Beckman ultra centrifuge and TLA 100.4 rotor (Beckman instruments, Palo Alto, Calif., USA) as previously described (Ågren et al., 2006). Briefly 1.8 ml of EDTA plasma was overlaid with saline solution (density=1.006 kg/I) in ultracentrifuge tubes and centrifuged at 35,000×g for 30 min at 23° C. The top 1 millilitre was aspirated to remove the chylomicron-rich fraction. All samples were frozen at −80° C. prior analysis.
# An internal standard mixture of triheptadecanoin (Sigma-Aldrich, St. Louis, Mo., USA), dinonadecanoylphosphatidylcholine (Sigma-Aldrich, St. Louis, Mo., USA) and cholesterylpentadecanoate (Nu-Chek Prep. Inc., Elysian, Minn., USA) was added to the isolated chylomicrons. Then 1.5 ml methanol, 3 ml chloroform and 0.8 ml 0.88% KCl in water were added and the blend was thoroughly vortexed after each addition. The tubes were centrifuged 2000×g for 3 minutes to separate the layers, and the chloroform rich layer was removed and evaporated to dryness (Folch et al., (1957) J Biol Chem 226:497-509). TAGs and phospholipids were isolated from the extracted lipid mixture with solid phase extraction based on silica columns (Hamilton and Comai, (1988) Lipids 23:1146-1149).
# Fatty acid methyl esters (FAME) were prepared with a sodium methoxide method. In short, the lipids were suspended to 1 ml dry diethylether. 25 μl methylacetate and 25 μl sodium methoxide were added and the blend was incubated for 5 minutes while shaken at times. The reaction was stopped with 6 μl acetic acid. The tubes were centrifuged 2000×g for 5 minutes, after which the supernatant was removed and gently evaporated to dryness. The resulting FAME were transferred to 100 μl inserts in hexane (Christie (1982) J Lipid Res 23:1072-1075). The FAME were analysed with gas chromatography (Shimadzu GC-2010 equipped with AOC-20i auto injector, flame ionization detector (Shimadzu corporation, Kyoto, Japan) and wall coated open tubular column DB-23 (60 m×0.25 mm i.d., liquid film 0.25 μm, Agilent technologies, J.W. Scientific, Santa Clara, Calif., USA). Splitless/split injection was used and the split was opened after 1 min. Supelco 37 Component FAME Mix (Supelco, St. Louis, Mo., USA), 68D (Nu-Check-Prep, Elysian, Minn., USA) and GLC-490 (Nu-Check-Prep, Elysian, Minn., USA) were used as external standards.
# [2] = Chylomicron phospholipid fatty acids (gas chromatography of FAME); format: in vivo, human; details: at 2 h
# Procedure: as §1
# The study breakfast consisted of 180 grams of instant mashed potato (Continental Deb™, Unilever, Australasia) mixed with 70 ml boiled water and 20 grams of oil. In each of the three meals 18 grams of lipids consisted of olive oil (La Espanola Pure Olive Oil, Seville, Spain). The DPA breakfast included 2 g of DPA (Equateq Ltd, Breasclete, Callanish, Scotland), the EPA breakfast 2 g of EPA (Equateq Ltd, Breasclete, Callanish, Scotland) and the control (olive oil) meal an additional 2 g of olive oil. […]
# Fatty acid methyl esters (FAME) were prepared with a sodium methoxide method. […] The FAME were analysed with gas chromatography (Shimadzu GC-2010 equipped with AOC-20i auto injector, flame ionization detector (Shimadzu corporation, Kyoto, Japan) and wall coated open tubular column DB-23 (60 m×0.25 mm i.d., liquid film 0.25 μm, Agilent technologies, J.W. Scientific, Santa Clara, Calif., USA). Splitless/split injection was used and the split was opened after 1 min. Supelco 37 Component FAME Mix (Supelco, St. Louis, Mo., USA), 68D (Nu-Check-Prep, Elysian, Minn., USA) and GLC-490 (Nu-Check-Prep, Elysian, Minn., USA) were used as external standards.
# [3] = Lipidomics of PUFA containing chylomicron TAGs (LC-ESI-MS/MS); format: in vivo, human; details: 3 and 5 hour time points
# Procedure: Lipidomic analysis of the one, three and five hour chylomicron samples was performed by liquid chromatography, electrospray ionisation-tandem mass spectrometry using an Applied Biosystems 4000 QTRAP mass spectrometer running Analyst 1.5 software. Liquid chromatography was performed on a Zorbax C18, 1.8 μm, 50×2.1 mm column (Agilent technologies, Santa Clara Calif., USA). The lipids of the chylomicrons were extracted with chloroform:methanol (2:1, 20 volumes), mixed, sonicated (30 mins) and allowed to stand for 20 mins. Samples were centrifuged (16 000×g, 10 min) and the supernatant transferred to a 96 well PPE plate and dried until a stream of nitrogen at 40° C. […] Quantification of individual TAG species was performed using scheduled multiple-reaction monitoring (MRM) in the positive ion mode (Murphy et al., (2007) Anal Biochem 366:59-70). Lipid concentrations (pmol/mL) were calculated by relating the peak area of each species to the peak area of the internal standard of triheptadecanoin (Sigma Aldrich, St Louis Mo., USA) for TAGs, cholestyl ester-18:0D6 (CDN isotopes, Quebec, Canada) for cholesteryl esters, phosphatidyl choline-13:0/13:0 (Avanti Polar Lipids, Alabaster Ala., USA) for phosphatidyl cholines and phosphatidyl ethanolamine-17:0/17:0 (Avanti Polar Lipids, Alabaster Ala., USA) for ethanolamines and phosphatidyl inositols (using Multiquant 1.2 software). […]
# [4] = Complaints reported after the study breakfasts; format: in vivo, human
# Procedure: as §2
# After the DPA meal, there were two cases of diarrhea and one case of upset stomach but no diarrhea. One case of diarrhea was reported after the EPA meal, and there were no complaints after the olive oil meal. All complaints occurred 2 to 3 hours after the breakfast.
# [5] = Postprandial plasma triacylglycerol concentration after test breakfasts (randomized cross-over study); format: in vivo, human
# Source text: (§4) Ten healthy normal weight females between the age of 20 to 30 of took part in a randomized cross over study with three different breakfast meals. […] The baseline values for EPA and DHA proportions in erythrocytes were 1.0±0.1 and 6.7±0.6% (mean±standard error of the mean). Subjects with any form of cardiovascular disease based on self reported medical status and family history were excluded from the study. All subjects provided written informed consent. Ethics approval was obtained from the Deakin University Human Research Ethics Committee (EC2011-023).
# as §1, §2
# Venous blood was drawn at the fasting state and hourly post prandial for one to five hours. EDTA blood samples were immediately centrifuged for fifteen minutes at 591×g to isolate the plasma.
# (§5) TAG concentrations in plasma and the isolated chylomicrons were measured on a Roche Cobas Integra 400 plus autoanalyser (Roche, Lavel, Quebec, Canada) by enzymatic colorimetric method using commercially available kits (TRIGL) as per the manufacturer's instructions (Roche, Lavel, Quebec, Canada).
# [6] = Postprandial triacylglycerol concentration in chylomicron-rich fraction after test breakfasts; format: in vivo, human
# Source text: as §4, §1, §2, §3, §5
# [7] = rats, short term supplementation; cited from earlier work
# [8] = 2 g in breakfast, 10 subjects, 2 to 3 hours after breakfast
compound,measurement,setting,value
"CC/C=C\C/C=C\C/C=C\C/C=C\C/C=C\CCCC(=O)O [EPA, eicosapentaenoic acid, reference compound]","DHA (22:6n-3) in chylomicron TAGs, compared to olive oil breakfast",[1]; at 5 h,significantly increased
same,EPA (20:5n-3) proportion in chylomicron TAGs,[1],significantly higher
same,"Amount of DPA and DHA in chylomicron phospholipids, compared to olive oil breakfast",[2],increased
same,"Proportion of EPA in chylomicron phospholipids, compared to the two other breakfasts",[2],increased
same,"TAG 58:9 in chylomicrons, compared to olive oil breakfast",[3],significantly more
same,Cases of diarrhea after the meal,[4]; [8],One
"CCC=CCC=CCC=CCC=CCC=CCCCCCC(=O)O [DPA, 7, 10, 13, 16, 19 docosapentaenoic acid]","Difference between plasma TAG areas, compared to control meal","[5]; 2 g in breakfast, p=0.078",tended to be significant
same,"Plasma TAG concentration at individual time points, compared to control meal","[5]; one and two hours, p=0.024 and p=0.014",smaller
same,Plasma triglyceride level after consumption,[5]; postprandial,remained close to fasting levels
same,Incorporation of fatty acids in chylomicrons,"[6]; 2 g added to 18 g olive oil, within five hours",almost completely eliminates
same,Chylomicron TAG level after the breakfast,"[6]; 2 g free fatty acid in 18 g olive oil, up to 5 h postprandial, n=10",remained close to fasting levels; also recorded: remained at almost fasting level
same,"Incremental area under the chylomicron TAG curve, compared to olive oil meal","[6]; 2 g in breakfast, p=0.021",significantly reduced
same,"Incremental area under the chylomicron TAG curve, compared to EPA meal","[6]; 2 g in breakfast, p=0.034",significantly reduced
same,"Chylomicron TAG concentration at individual time points, compared to control meal","[6]; one and two hours, p=0.017 and p=0.068",smaller
same,"DHA (22:6n-3) in chylomicron TAGs, compared to olive oil breakfast",[1]; at 2 h and 3 h,significantly increased
same,EPA (20:5n-3) proportion in chylomicron TAGs,[1],did not raise
same,DPA (22:5n-3) content in chylomicron TAGs,"[1]; vs olive oil meal 2-5 h (3 h p=0.06), vs EPA meal 3-5 h",significantly higher
same,"TAG 58:9 in chylomicrons, compared to olive oil breakfast",[3],significantly more
same,Cases of diarrhea after the meal,[4]; [8],two
same,Cases of upset stomach but no diarrhea after the meal,[4]; [8],one
same,Subjects reporting diarrhea or upset stomach,[4]; in the three hours following the breakfast,three out of the ten
same,Concentration of DHA in liver,[7],significantly increased
same,"Concentration of EPA in the liver, heart and skeletal muscle",[7],significantly increased
